# Measurements: patent US6511827B1 (Merck & Co., Inc., priority 1997, dated 2003)
# pKd: −log10 of the molar value.
# Tests used:
# galanin receptors = conditions: hypothalamus, ventral hippocampus, basal forebrain, spinal cord, pancreas and pituitary; cited from earlier work
# human GALR3 = test: Specific binding of ^125I-galanin radioligands to membranes of COS-7 cells transfected with GALR3 clones, as a function of membrane protein
# Experimental: Mammalian COS-7 cells were transfected by electroporation. COS-7 cells (1×10^7) were suspended in 0.85 ml of Ringers' buffer and […] of the GALR3-2 or GALR3—3 expression plasmid was added to a 0.4 mm electroporation cuvette (Bio-Rad, Hercules, Calif.). Current was applied ([…], 260 V) using a Bio-Rad Electroporator device and the cells were transferred to a T-180 flask (Corning). Expression was allowed to proceed for 72 hrs.
# Membranes were prepared from transfected cells following dissociation in enzyme-free dissociation solution (Specialty Media, Lavallette, N.J.) by disruption in a Dounce homogenizer in ice-cold membrane buffer (10 mM Tris, pH 7.4, 10 mM PMSF, […], and […]). After a low speed (1100×g for 10 min. at 4° C.) and a high speed centrifugation (38,700×g for 15 min. at 4° C.), membranes were resuspended in buffer and protein concentration determined (Bio-Rad assay kit). […] Reactions were initiated by the addition of membranes and the incubation was allowed to proceed at room temperature for 1 hour. […] Titration of membrane protein from 1 to 50 μg was conducted. […] Incubations were terminated by rapid filtration through GF/C filters which had been presoaked with 0.1% polyethylamine using a TOMTEC (Orange, Conn.) cell harvester. The results were analyzed using the Prism software package (GraphPad, San Diego, Calif.).
Substance,pKd (galanin receptors),"Specific binding of radioligand (human GALR3; Clone GALR3-3, membrane protein 5 μg)","Specific binding of radioligand (human GALR3; Clone GALR3-3, membrane protein 10 μg)","Specific binding of radioligand (human GALR3; Clone GALR3-3, membrane protein 20 μg)","Specific binding of radioligand (human GALR3; Clone GALR3-3, membrane protein 50 μg)"
^125I-galanin,~9.00,,,,
^125I-human galanin,,211 cpm,407 cpm,886 cpm,2061 cpm
